Experimental data from patent US11752165B2, “Basic chemotherapeutic intratumour injection formulation” (US NANO FOOD & DRUG, INC., priority 2020, dated 2023).
In brackets after ≈: the same amount, converted by molar mass. Entries after “also recorded” stand apart in the source; their conditions may differ. Structures can show the parent of a compound that is named as a salt. Where two headings read alike, the source gives them in different places.

Legend:
[1] = Stability of the basic (free base) chemical; conditions: detailed description
[2] = cited from earlier work; for Solubility in water (in words): background statement
[3] = background statement, cited from earlier work
Solubility in water = conditions: for Solubility in water (in words): detailed description; for Solubility in H2O: Table 2, yes/no
[4] = background statement; cited from earlier work
[5] = Solubility in oil, ethanol and other organic liquids; conditions: for Solubility in organic liquids (in words): detailed description; for Solubility in ethanol / Solubility in oil: Table 2, yes/no
[6] = 5 mg/mL aqueous solution; cited from earlier work
[7] = assay type: physicochemical
[8] = cited from earlier work
mice = conditions: mouse, in vivo, ip; cited from earlier work
[9] = serum, rapid intravenous injection, patients with cancer

| Stability of the base form (in words) [1] | Solubility in water (in words) (Solubility in water) | SMILES | Solubility in water (in words) [2] | Solubility in organic liquids (in words) [3] | Stability of the basic chemical (in words) [4] | Solubility in organic liquids (in words) [5] | other results |
| --- | --- | --- | --- | --- | --- | --- | --- |
| not stable in base form | insoluble in water | COc1cccc2c1C(=O)c1c(O)c3c(c(O)c1C2=O)C[C@@](O)(C(C)=O)C[C@@H]3O[C@H]1C[C@H](N)[C@H](O)[C@H](C)O1 [Daunorubicin base, daunorubicin] | insoluble in water | slightly soluble in an organic liquid | unstable | slightly soluble in an organic liquid such as oleic acid, PEG and ethanol | – |
| – | – | COc1cccc2c1C(=O)c1c(O)c3c(c(O)c1C2=O)C[C@@](O)(C(C)=O)C[C@@H]3O[C@H]1C[C@H](N)[C@H](O)[C@H](C)O1 [Daunorubicin hydrochloride] | – | – | – | – | Solubility in water (in words) ([2]; hydrochloride): soluble in water |
| – | – | COc1cccc2c1C(=O)c1c(O)c3c(c(O)c1C2=O)C[C@@](O)(C(=O)CO)C[C@@H]3O[C@H]1C[C@H](N)[C@H](O)[C@H](C)O1 [Doxorubicin Hydrochloride] | – | – | – | – | Solubility in water (in words) ([2]; hydrochloride): soluble in water; pH of aqueous solution [6]: 4.0-5.5 |
| – | – | COc1cccc2c1C(=O)c1c(O)c3c(c(O)c1C2=O)C[C@@](O)(C(=O)CO)C[C@@H]3O[C@H]1C[C@H](N)[C@H](O)[C@H](C)O1 [Doxorubicin base, doxorubicin] | insoluble in water | slightly soluble in an organic liquid | unstable | slightly soluble alcohols; also recorded: moderately soluble in anhydrous methanol | pH in water ([7]; 10 mg in 5 ml of water): 7.9 |
| – | – | COc1cccc2c1C(=O)c1c(O)c3c(c(O)c1C2=O)C[C@@](O)(C(=O)CO)C[C@@H]3O[C@H]1C[C@H](N)[C@@H](O)[C@H](C)O1 [Epirubicin hydrochloride] | – | – | – | – | Solubility in water (in words) ([2]; hydrochloride): soluble in water |
| – | – | CC[C@]1(O)C[C@@H]2CN(CCc3c([nH]c4ccccc34)[C@@](C(=O)OC)(c3cc4c(cc3OC)N(C)[C@H]3[C@@](O)(C(=O)OC)[C@H](OC(C)=O)[C@]5(CC)C=CCN6CC[C@]43[C@@H]65)C2)C1 [Vinblastine sulphate] | One part is soluble in 10 parts of water | – | – | – | Solubility in H2O (Solubility in water; listed as Vinblastine H2SO4): yes; Solubility in water (in words) (Solubility in water; listed as Vinblastine sulfate): soluble in water; Crossing of the blood brain barrier (in words) ([8]; following IV administration): crosses the blood brain barrier poorly; Solubility in ethanol ([5]; listed as Vinblastine H2SO4): no; Solubility in oil ([5]; listed as Vinblastine H2SO4): no |
| unstable at room temperature | practically insoluble in water | CC[C@]1(O)C[C@@H]2CN(CCc3c([nH]c4ccccc34)[C@@](C(=O)OC)(c3cc4c(cc3OC)N(C)[C@H]3[C@@](O)(C(=O)OC)[C@H](OC(C)=O)[C@]5(CC)C=CCN6CC[C@]43[C@@H]65)C2)C1 [Vinblastine] | – | – | – | soluble in alcohol, acetone, chloroform, ethyl acetate | Solubility in water (in words) ([2]; listed as vinblastine): insoluble in water; Solubility in organic liquids (in words) ([3]; listed as vinblastine): slightly soluble in an organic liquid; Solubility in H2O (Solubility in water): no; Solubility in water (in words) (Solubility in water; listed as vinblastine base): not soluble in water; Initial half-life [8, 9]: 3.7 min; Middle half-life [8, 9]: 1.6 h; Terminal half-life [8, 9]: 24.8 h; Solubility in ethanol [5]: yes; Solubility in oil [5]: yes |
| – | – | CC[C@]1(O)C[C@H]2CN(CCc3c([nH]c4ccccc34)[C@@](C(=O)OC)(c3cc4c(cc3OC)N(C=O)[C@H]3[C@@](O)(C(=O)OC)[C@H](OC(C)=O)[C@]5(CC)C=CCN6CC[C@]43[C@@H]65)C2)C1 [Vincristine sulfate] | freely soluble in water | – | – | – | Solubility in H2O (Solubility in water; listed as Vincristine H2SO4): yes; Solubility in ethanol ([5]; listed as Vincristine H2SO4): no; Solubility in oil ([5]; listed as Vincristine H2SO4): no |
| not stable | practically insoluble in water | CC[C@]1(O)C[C@@H]2CN(CCc3c([nH]c4ccccc34)[C@@](C(=O)OC)(c3cc4c(cc3OC)N(C)[C@H]3[C@@](O)(C(N)=O)[C@H](O)[C@]5(CC)C=CCN6CC[C@]43[C@@H]65)C2)C1 [Vindesine] | insoluble in water | slightly soluble in an organic liquid | unstable | soluble in alcohol, acetone | Solubility in H2O (Solubility in water): no; Solubility in ethanol [5]: yes; Solubility in oil [5]: yes |
| – | insoluble in water | COc1cccc2c1C(=O)c1c(O)c3c(c(O)c1C2=O)C[C@@](O)(C(=O)CO)C[C@@H]3O[C@H]1C[C@H](N)[C@@H](O)[C@H](C)O1 [epirubicin base, epirubicin] | insoluble in water | slightly soluble in an organic liquid | unstable | – | Solubility in water (Solubility in water): 0.093 mg per ml |
| – | – | C=C1C[C@@H]2CC[C@@]34C[C@H]5O[C@H]6[C@@H](O3)[C@H]3O[C@H](CC[C@@H]3O[C@H]6[C@H]5O4)CC(=O)C[C@@H]3[C@@H](OC)[C@@H](C[C@H](O)CN)O[C@H]3C[C@H]3O[C@@H](CC[C@@H]1O2)C[C@@H](C)C3=C [eribulin] | insoluble in water | slightly soluble in an organic liquid | unstable | – | – |

| SMILES | Stability of the base form (in words) [1] | Solubility in water (in words) (Solubility in water) | Solubility in water (in words) [2] | Solubility in organic liquids (in words) [3] | Stability of the basic chemical (in words) [4] | Solubility in organic liquids (in words) [5] | other results |
| --- | --- | --- | --- | --- | --- | --- | --- |
| O=C1c2c(O)ccc(O)c2C(=O)c2c(NCCNCCO)ccc(NCCNCCO)c21 [Mitoxantrone base, mitoxantrone] | the basic form is stable | sparingly soluble in water | insoluble in water | slightly soluble in an organic liquid | – | slightly soluble in methanol; also recorded: practically insoluble in acetonitrile chloroform and acetone | pH in water ([7]; 25 mg in 10 ml water): 9.42 |
| CC[C@]1(O)C[C@H]2CN(CCc3c([nH]c4ccccc34)[C@@](C(=O)OC)(c3cc4c(cc3OC)N(C=O)[C@H]3[C@@](O)(C(=O)OC)[C@H](OC(C)=O)[C@]5(CC)C=CCN6CC[C@]43[C@@H]65)C2)C1 [Vincristine] | – | not soluble in water | practically insoluble in water | soluble in alcohol, acetone, and chloroform | unstable | – | Solubility in water ([2]; 25° C.): 2.27 µg/mL (≈ 2.75 µM); Solubility in water (in words) ([2]; listed as vincristine): insoluble in water; Solubility in organic liquids (in words) ([3]; listed as vincristine): slightly soluble in an organic liquid; Solubility in H2O (Solubility in water): no; LD50 (mice): 5.2 mg/kg; Solubility in ethanol [5]: yes; Solubility in oil [5]: yes |
